Source: US20260184749A1, “CARBOHYDRATE BINDING POLYPEPTIDE OF SAVALIA SAVAGLIA” (University of Belgrade, priority 2021, published 2026)
Read-outs that look alike come from different tables or passages of the source.

Key:
[1] = system: Sava lectin (Savalithsin) from Savalia (Gerardia) savaglia, isoforms SEQ ID NOs: 1, 2, 3 and 4; assay: Isothermal titration calorimetry (ITC) of carbohydrate binding to Sava lectin; conditions: pH 7.4, 50 mM PBS, 25° C.
Text: The present inventors have identified, purified and characterised a novel lectin from Savalia (Gerardia) savaglia. The inventors have identified four very closely-related isoforms of this lectin (see Table 1). The sequences of the isoforms are provided as SEQ ID NOs: 1, 2, 3 and 4. SEQ ID NO: 1 is the sequence of the most prevalent (dominant) form expressed in Savalia (Gerardia) savaglia (as determined by mass spectrometry). […] The lectin may be referred to herein as Sava lectin or Savalithsin. This term may be used to refer to a mixture comprising the four isoforms, which may optionally include other isoforms or variants as defined herein. References to recombinantly produced Savalithsin typically refer to the dominant form.
Isothermal titration calorimetry (ITC) experiments were performed with Sava lectin at pH 7.4 in 50 mM phosphate buffered saline (PBS) at 25° C. and in the presence of different D-carbohydrates (mono- and di-saccharides).
Thermodynamic parameters of mannose and methyl mannoside binding were obtained by algorithm for global fitting of the model function to the experimental ITC thermograms based on the iterative non-linear Levenberg-Marquardt χ2 regression procedure. The best agreement between model and experimental data was achieved when two binding sites per protein molecule were assumed.

[2] = biological target: Sava lectin (Savalithsin) from Savalia (Gerardia) savaglia, isoforms SEQ ID NOs: 1, 2, 3 and 4; assay: Microscale thermophoresis (MST) of carbohydrate binding to Sava lectin
Text: Microscale thermophoresis (MST) experiments confirmed binding of mannose and methyl mannoside. […] Two Km values indicate existence of two binding sites that could be different of allosterically connected.

[3] = system: Sava lectin (Savalithsin) from Savalia (Gerardia) savaglia, isoforms SEQ ID NOs: 1, 2, 3 and 4; assay: Differential scanning calorimetry (DSC) of Sava lectin in the presence of carbohydrates; type: binding; conditions: for Melting point (Tm) of Sava lectin in the presence of carbohydrate: PBS pH 7.4, Sava lectin alone Tm 79.17° C.
Method: Experiments with differential scanning calorimetry confirmed binding of mannose and methyl mannoside, see discussion of thermal stability below.
Thermal stability was determined by differential scanning calorimetry (DSC). Experiments were performed in PBS at pH 7.4. […] Increased Tm indicates stabilization of protein structure in the presence of bound carbohydrate.

[4] = system: Sava lectin (Savalithsin) from Savalia (Gerardia) savaglia, isoforms SEQ ID NOs: 1, 2, 3 and 4; assay: Turbidimetric activity assay of carbohydrate binding to Sava lectin
Method: Turbidimetric activity assay was performed to confirm ITC results. […] This small binding constant produces small heat effect that cannot be observed by ITC.

[5] = biological target: the molecule itself; assay: MALDI-TOF mass spectrometry of Sava lectin (self-association, oligomers) [top]

With `C[C@@H]1OC(O)[C@@H](O)[C@H](O)[C@@H]1O` (stereo partly drawn) [fucose] the “Binding observed using ITC” value [1] was “did not observed binding”.

`C[C@@H]1OC(O)[C@H](O)[C@H](O)[C@H]1O` (stereo partly drawn) [rhamnose] was tested, and the “Binding observed using ITC” value [1] was “did not observed binding”.

For `CO[C@H]1O[C@H](CO)[C@@H](O)[C@H](O)[C@@H]1O` [methyl alpha-D-mannoside], the Kd ([2]; read-out: Dissociation constant (Kd)) was 13.2 mM, the “Binding constant (Kb)” value [1] was 1270 M⁻¹ and the “Melting point (Tm) of Sava lectin in the presence of carbohydrate” value [3] was 79.55 °C.

`OC[C@H]1OC(O)[C@H](O)[C@@H](O)[C@@H]1O` (stereo partly drawn) [D-glucose] was tested, and the “Binding (turbidimetric activity assay)” value [4] was “weak binding”, the “Binding constant compared with D-mannose” value ([4]; relative to D-mannose) was “two orders of magnitude lower than for D-mannose” and the “Binding observed using ITC” value [1] was “did not observed binding”.

With `OC[C@H]1O[C@H](OC[C@H]2O[C@H](O[C@]3(CO)O[C@H](CO)[C@@H](O)[C@@H]3O)[C@H](O)[C@@H](O)[C@@H]2O)[C@H](O)[C@@H](O)[C@H]1O` [raffinose] the “Binding observed using ITC” value [1] was “did not observed binding”.

In the case of `O=C[C@@H](O)[C@H](O)[C@H](O)CO` [arabinose], the “Binding observed using ITC” value [1] is reported as “did not observed binding”.

For `OC[C@H]1OC(O)[C@H](O)[C@@H](O)[C@H]1O` (stereo partly drawn) [galactose], the “Binding observed using ITC” value [1] was “did not observed binding” and the “Tm of Sava lectin in the presence of carbohydrate, compared with Sava lectin only” value ([3]; PBS pH 7.4) was “the same as in the experiment with Sava lectin only”.

`OC[C@H]1OC(O)[C@@H](O)[C@@H](O)[C@@H]1O` (stereo partly drawn) [D-mannose] was tested, and the Kd ([2]; first of two binding events, read-out: Dissociation constant (Kd), first binding event) was 0.0265 mM, the Kd ([2]; second of two binding events, read-out: Dissociation constant (Kd), second binding event) was 11.2 mM and the “Binding constant (Kb)” value [1] was 2514 M⁻¹. For the same molecule, the “Melting point (Tm) of Sava lectin in the presence of carbohydrate” value [3] was 79.63 °C.

For `OC[C@H]1O[C@@H](O[C@H]2[C@H](O)[C@@H](O)C(O)O[C@@H]2CO)[C@H](O)[C@@H](O)[C@H]1O` (stereo partly drawn) [lactose], the “Binding observed using ITC” value [1] was “did not observed binding”.

For `CC(=O)N[C@H]1C(O)O[C@H](CO)[C@@H](O)[C@@H]1O` (stereo partly drawn) [N-acetyl glucosamine], the “Binding observed using ITC” value [1] was “did not observed binding”.

In the case of `OC[C@@H](O)[C@@H](O)[C@H](O)[C@H](O)CO` [mannitol], the “Binding observed using ITC” value [1] is reported as “did not observed binding”.

In the case of `CC(=O)N[C@H]1C(O)O[C@H](CO)[C@H](O)[C@@H]1O` (stereo partly drawn) [N-acetyl galactosamine], the “Binding observed using ITC” value [1] is reported as “did not observed binding”.

B1: Sava lectin (isolated and purified from the coral Savalia (Gerardia) savaglia) (other)
chain: SNLRWVATSGGKVPEHAVVGGENFSGEVLYVARVRINSGLTPGKMAPSYRVAHTSYGGKEFYKSDYELITNPGWKSHIEWKYHEGHSKPTNAVLGGTDQRNLYVARFMYGDGHMLSGKVLFDYGKAYLGYNNKEYESTKFYVLVEHPSW
notes: No glycosylation or other post-translational modification was observed; also called Savalithsin
B1: binds [5].
